According to ChEMBL document CHEMBL1201862, “PubChem BioAssay data set” (2004):
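Results reflect a 48-hour exposure of cells in 96-well plates to compound at five concentrations. Abbreviation: GI50, concentration required for 50% inhibition of growth.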 Calls of active or inactive are those of the source. Cut-off read from the data, not from the text of the source: active = GI50 up to about 1.1 µM and inactive = higher. Where a SMILES comes first, the peptide text is derived from it. The star is where a group is joined. Cbz = O=C(OCc1ccccc1)*

Tests used:
Assay in all cases: DTP human tumour cell line panel, 48 h
SW-620 = tested on: SW-620
KM-20L2 = tested on: KM-20L2
RXF 393 = tested on: RXF 393
M14 = tested on: M14
HL-60 = tested on: HL-60
COLO 205 = tested on: COLO 205
OVCAR-8 = tested on: OVCAR-8
SNB-75 = tested on: SNB-75
MOLT-4 = tested on: MOLT-4
SK-MEL-28 = tested on: SK-MEL-28
ACHN = tested on: ACHN
786-0 = tested on: 786-0
HOP-62 = tested on: HOP-62
IGROV-1 = tested on: IGROV-1
OVCAR-3 = tested on: OVCAR-3
BT-549 = tested on: BT-549
MDA-MB-231 = tested on: MDA-MB-231
T47D = tested on: T47D
HOP-92 = tested on: HOP-92
A498 = tested on: A498

Measured: GI50

O=C(CSc1nnc(-c2ccc(/N=C\c3ccc(Cl)cc3)cc2)o1)Nc1ccc([N+](=O)[O-])cc1
inactive: SW-620 17.1 µM | KM-20L2 27.2 µM | RXF 393 19.6 µM | M14 19.4 µM | HL-60 26.4 µM | COLO 205 35.2 µM | OVCAR-8 37.6 µM | SNB-75 25.4 µM | MOLT-4 15.7 µM | SK-MEL-28 18.5 µM | ACHN 11.9 µM | 786-0 19.8 µM | HOP-62 32.1 µM

COc1ccc2nc(NC(=O)/C(C#N)=C/c3ccccc3)sc2c1
inactive: SW-620 46.9 µM | RXF 393 > 61.4 µM | IGROV-1 29.4 µM | OVCAR-3 18.4 µM | M14 > 54.1 µM | HL-60 9.35 µM | COLO 205 48.3 µM | BT-549 52.2 µM | OVCAR-8 > 51.6 µM | SNB-75 > 45.7 µM | MDA-MB-231 > 79.8 µM | MOLT-4 27.5 µM | SK-MEL-28 66.7 µM | T47D 30.1 µM | ACHN 35.6 µM | 786-0 44.9 µM | HOP-92 32.7 µM | HOP-62 > 64.1 µM | A498 37.3 µM

O=C(O)CCO/N=C1/C(=C2/C(=O)Nc3ccccc32)Nc2ccccc21
inactive: SW-620 29.7 µM | RXF 393 3.61 µM | IGROV-1 11.9 µM | OVCAR-3 11.7 µM | M14 19.6 µM | HL-60 23.7 µM | COLO 205 18.2 µM | BT-549 24.5 µM | OVCAR-8 38.1 µM | SNB-75 13.8 µM | MDA-MB-231 37.4 µM | MOLT-4 17.1 µM | SK-MEL-28 33.3 µM | T47D 13.3 µM | ACHN 15.2 µM | 786-0 21.5 µM | HOP-92 36.1 µM | HOP-62 26.4 µM | A498 5.6 µM

Nc1ccc(C(=O)CC(N)C(=O)O)cc1O (stereo not drawn)
inactive: SW-620 > 100 µM | RXF 393 > 100 µM | IGROV-1 > 100 µM | OVCAR-3 > 100 µM | M14 > 100 µM | HL-60 > 100 µM | COLO 205 > 100 µM | BT-549 > 100 µM | OVCAR-8 > 100 µM | SNB-75 > 100 µM | MDA-MB-231 > 100 µM | MOLT-4 > 100 µM | SK-MEL-28 > 100 µM | T47D > 100 µM | ACHN > 100 µM | 786-0 > 100 µM | HOP-92 > 100 µM | HOP-62 > 100 µM | A498 > 100 µM

CCOC(=O)CCC(NC(=O)C(Cc1ccccc1)NC(=O)OCc1ccccc1)C(=O)OCC (stereo not drawn) (Cbz-Phe-Glu(OEt)-OEt; configuration not given here)
inactive: SW-620 18.2 µM | RXF 393 17.9 µM | IGROV-1 18.1 µM | OVCAR-3 15.3 µM | M14 15.9 µM | HL-60 20.1 µM | COLO 205 19.4 µM | BT-549 > 100 µM | OVCAR-8 19.5 µM | SNB-75 18.7 µM | MDA-MB-231 14.9 µM | MOLT-4 30.2 µM | SK-MEL-28 17.9 µM | T47D 16.2 µM | ACHN 17.4 µM | 786-0 18.1 µM | HOP-92 18.5 µM | HOP-62 18.5 µM | A498 21.2 µM

O=C1Nc2cccc(Cl)c2/C1=C\c1c(-c2ccccc2)nc2n1CCS2
inactive: SW-620 14.9 µM | RXF 393 19.6 µM | IGROV-1 12.8 µM | OVCAR-3 19.4 µM | M14 20.9 µM | HL-60 16.3 µM | COLO 205 18.8 µM | BT-549 22.1 µM | OVCAR-8 24.7 µM | SNB-75 24 µM | MDA-MB-231 20.7 µM | MOLT-4 10.6 µM | SK-MEL-28 21.2 µM | T47D 17.5 µM | ACHN 16.4 µM | 786-0 18 µM | HOP-92 20 µM | HOP-62 25.9 µM | A498 20.4 µM
